Source: paper PMC4396868 (Birth defects research. Part A, Clinical and molecular …, 2014)

Biological target: bovine folate binding protein (bFBP) (Bos taurus, UniProt P02702)
Test: competitive binding ELISA, displacement of folic acid-HRP, chemiluminescence

bovine folate binding protein (bFBP), sequence (P02702 20-234): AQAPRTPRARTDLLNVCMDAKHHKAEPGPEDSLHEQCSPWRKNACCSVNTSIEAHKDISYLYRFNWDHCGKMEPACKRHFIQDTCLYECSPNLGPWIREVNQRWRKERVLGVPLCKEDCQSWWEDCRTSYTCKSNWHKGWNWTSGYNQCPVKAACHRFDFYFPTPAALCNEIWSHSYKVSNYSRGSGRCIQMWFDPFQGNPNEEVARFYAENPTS

IC50: 269 mM
SMILES: CCCC(CCC)C(=O)O [Valproic acid]
